{"source": "patent US20220305079A1", "about": "“THERAPEUTIC PEPTIDES” (COHBAR, INC., priority 2019, published 2022)", "key": {"[1]": {"tested_on": "MCF-7 human breast cancer cell line", "test": "MTS Assay in MCF-7 Cells (cell viability)", "conditions": "test peptides at 10 μM, 72 hours, relative to DMSO control", "protocol": "(§1) Peptides and reference compound staurosporine (Selleckchem) were dissolved with DMSO at 10 mM stock. CellTiter 96® AQueous One Solution Reagent (MTS assay reagent) was purchased from Promega (Madison, Wis.). MCF-7 human breast cancer cell line was purchased from American Type Culture Collection (Manassas, Va.). MCF-7 cells were grown in EMEM Medium supplemented with 10% FBS and 0.01 mg/ml human recombinant insulin. 100 μg/ml penicillin and 100 μg/ml streptomycin were added to the culture medium. […] 5 μl of CellTiter 96® AQueous One Solution Reagent (MTS assay reagent) was added to each well and incubated at 37° C., 5% CO2 for 5 hours. Absorbance at 492 nm was recorded by Envision 2104 Multilabel Reader. Treatment with DMSO alone was used as the cell viability activity control."}, "Mouse 3T3-L1 adipocytes": {"tested_on": "Mouse 3T3-L1 adipocytes", "test": "Free Fatty Acid Levels in 3T3-L1 Adipocytes", "conditions": "for Free Fatty Acid Levels in 3T3-L1 Adipocytes Expressed as a Percent Isoproterenol Control, Percent of Control Activity: test peptides 25 μM, 20-22 hours then isoproterenol (1 nM) 3 hours", "description": "Mouse 3T3-L1 adipocytes were seeded at 3,000 cells per well in 96-well plates in Pre-adipocyte Medium (Zen-Bio, Durham, N.C.) and grown to confluence at 37° C. in a humidified atmosphere of 5% CO2/95% air. Two days after confluence, cells were placed in Adipocyte Differentiation Medium (Zen-Bio, Durham, N.C.) and cultured for three additional days at 37° C. in a humidified atmosphere of 5% CO2/95% air. The culture media was then replaced with Adipocyte Maintenance Medium (Zen-Bio) and the cells maintained for an additional 9-12 days at 37° C. in a humidified atmosphere of 5% CO2/95% air with partial medium replacement every other day. Following 12-15 days' differentiation, test peptides were added to a final concentration of 25 μM and incubated for 20-22 hours in Adipocyte Maintenance Medium. After 20-22 hours, isoproterenol (1 nM) was added to all wells except untreated controls and test peptides were replenished. Cells were incubated for a further 3 hours in Assay Buffer (Zen-Bio). Free fatty acid concentrations in the media were determined using a Free Fatty Acid Assay Kit (Zen-Bio) according to the manufacturer's instructions using a plate reader (540 nm). Absorbance values were corrected for untreated background and expressed relative to isoproterenol treated cells. Treatment with isoproterenol (1 nM) alone was used as the free fatty acid level stimulatory control. The relative standard deviation of the isoproterenol control was <10%."}, "[2]": {"tested_on": "MDA-MB-231 human breast cancer cell line", "test": "Caspase 3/7 Activity in MDA-MB-231 Cells (Caspase-Glo 3/7 Assay)", "assay_type": "cell-based", "conditions": "test peptides at 10 μM, 18 hours, relative to DMSO control", "protocol": "The effect of the peptides on cell death/survival can be assessed using a caspase-3 assay. Peptides were dissolved with DMSO at 10 mM stock. […] Staurosporine (Selleckchem) was dissolved with DMSO at 1 mM stock. Caspase-Glo 3/7 Assay Reagent was purchased from Promega (Madison, Wis.). MDA-MB-231 human breast cancer cell line was purchased from American Type Culture Collection (Manassas, Va.). MDA-MB-231 cells were grown in DMEM Medium supplemented with 10% FBS. 100 μg/ml penicillin and 100 μg/ml streptomycin were added to the culture medium. […] 25 μl of Caspase-Glo 3/7 Assay Reagent was added to each well and incubated at 37° C., 5% CO2 for 1 hour. Luminescence for each sample well on the plate was measured by Envision 2104 Multilabel Reader (PerkinElmer, Santa Clara, Calif.). Activity was calculated relative to DMSO control."}, "[3]": {"tested_on": "MDA-MB-231 human breast cancer cell line", "test": "MTS Assay in MDA-MB-231 Cells (cell viability)", "assay_type": "cell-based", "conditions": "72 hours, relative to DMSO control; test concentration not given", "protocol": "(§2) Test compounds and reference compound staurosporine (Selleckchem) were all dissolved with DMSO at 10 mM stock. […] Activity was calculated relative to DMSO control. […] Cell viability was 3% of the DMSO control value for Staurosporine (10 uM)."}, "[4]": {"test": "MTS Assay in MCF-7 Cells (cell viability)", "conditions": "human", "protocol": "as §1"}, "[5]": {"test": "MTS Assay in MDA-MB-231 Cells (cell viability)", "assay_type": "cell-based, human", "conditions": "human; Staurosporine 10 uM, positive control, MDA-MB-231 cells; read-out: Cell viability, % of the DMSO control value", "protocol": "as §2"}}, "note": "Square brackets hold non-standard residues; d marks the D form. Ends that are not written are not given here."}
{"compound": "2 (MTHQSHAYHIVKPSP) [compound 2]", "values": [{"measurement": "MTS Assay in MCF-7 Cells, Percent of Control Activity", "setting": "[1]", "value": 71, "unit": "%"}, {"measurement": "Free Fatty Acid Levels in 3T3-L1 Adipocytes Expressed as a Percent Isoproterenol Control, Percent of Control Activity", "setting": "Mouse 3T3-L1 adipocytes", "value": 95, "unit": "%"}, {"measurement": "Caspase 3/7 Activity in MDA-MB-231 Cells, Percent of Control Activity", "setting": "[2]", "value": 51, "unit": "%"}, {"measurement": "MTS Assay in MDA-MB-231 Cells, Percent of Control Activity", "setting": "[3]", "value": 85, "unit": "%"}]}
{"compound": "3 (THQSHAYHIVKPSP; not fully specified) [compound 3]", "values": [{"measurement": "Free Fatty Acid Levels in 3T3-L1 Adipocytes Expressed as a Percent Isoproterenol Control, Percent of Control Activity", "setting": "Mouse 3T3-L1 adipocytes", "value": 118, "unit": "%"}]}
{"compound": "4 (THQSH[dA]YHIVKPSP) [compound 4]", "values": [{"measurement": "Free Fatty Acid Levels in 3T3-L1 Adipocytes Expressed as a Percent Isoproterenol Control, Percent of Control Activity", "setting": "Mouse 3T3-L1 adipocytes", "value": 134, "unit": "%"}]}
{"compound": "5 (HQSH[dA]YHIVKPSP) [compound 5]", "values": [{"measurement": "Free Fatty Acid Levels in 3T3-L1 Adipocytes Expressed as a Percent Isoproterenol Control, Percent of Control Activity", "setting": "Mouse 3T3-L1 adipocytes", "value": 111, "unit": "%"}]}
{"compound": "7 (MWFDYFCMSPSIDEGLTLLV) [compound 7]", "values": [{"measurement": "MTS Assay in MCF-7 Cells, Percent of Control Activity", "setting": "[1]", "value": 63, "unit": "%"}, {"measurement": "Free Fatty Acid Levels in 3T3-L1 Adipocytes Expressed as a Percent Isoproterenol Control, Percent of Control Activity", "setting": "Mouse 3T3-L1 adipocytes", "value": 104, "unit": "%"}, {"measurement": "Caspase 3/7 Activity in MDA-MB-231 Cells, Percent of Control Activity", "setting": "[2]", "value": 29, "unit": "%"}, {"measurement": "MTS Assay in MDA-MB-231 Cells, Percent of Control Activity", "setting": "[3]", "value": 81, "unit": "%"}]}
{"compound": "8 (WFDYFCMSPSIDEGLTLLV) [compound 8]", "values": [{"measurement": "Free Fatty Acid Levels in 3T3-L1 Adipocytes Expressed as a Percent Isoproterenol Control, Percent of Control Activity", "setting": "Mouse 3T3-L1 adipocytes", "value": 45, "unit": "%"}]}
{"compound": "9 (WFDYFCMSPSIDEGLTL) [compound 9]", "values": [{"measurement": "Free Fatty Acid Levels in 3T3-L1 Adipocytes Expressed as a Percent Isoproterenol Control, Percent of Control Activity", "setting": "Mouse 3T3-L1 adipocytes", "value": 35, "unit": "%"}]}
{"compound": "10 (WFDYFAMSPSADEGLTL) [compound 10]", "values": [{"measurement": "Free Fatty Acid Levels in 3T3-L1 Adipocytes Expressed as a Percent Isoproterenol Control, Percent of Control Activity", "setting": "Mouse 3T3-L1 adipocytes", "value": 55, "unit": "%"}]}
{"compound": "12 (MVKGDSKYSEACRRVK) [compound 12]", "values": [{"measurement": "MTS Assay in MCF-7 Cells, Percent of Control Activity", "setting": "[1]", "value": 50, "unit": "%"}, {"measurement": "Free Fatty Acid Levels in 3T3-L1 Adipocytes Expressed as a Percent Isoproterenol Control, Percent of Control Activity", "setting": "Mouse 3T3-L1 adipocytes", "value": 135, "unit": "%"}, {"measurement": "Caspase 3/7 Activity in MDA-MB-231 Cells, Percent of Control Activity", "setting": "[2]", "value": 52, "unit": "%"}, {"measurement": "MTS Assay in MDA-MB-231 Cells, Percent of Control Activity", "setting": "[3]", "value": 80, "unit": "%"}]}
{"compound": "13 (VKGDSKYSEACRRVK) [compound 13]", "values": [{"measurement": "Free Fatty Acid Levels in 3T3-L1 Adipocytes Expressed as a Percent Isoproterenol Control, Percent of Control Activity", "setting": "Mouse 3T3-L1 adipocytes", "value": 113, "unit": "%"}]}
{"compound": "14 (VKGDSKYSEACRRV) [compound 14]", "values": [{"measurement": "Free Fatty Acid Levels in 3T3-L1 Adipocytes Expressed as a Percent Isoproterenol Control, Percent of Control Activity", "setting": "Mouse 3T3-L1 adipocytes", "value": 112, "unit": "%"}]}
{"compound": "15 (VKGDSKYSEACR) [compound 15]", "values": [{"measurement": "Free Fatty Acid Levels in 3T3-L1 Adipocytes Expressed as a Percent Isoproterenol Control, Percent of Control Activity", "setting": "Mouse 3T3-L1 adipocytes", "value": 128, "unit": "%"}]}
{"compound": "17 (MVLFFRSSKLQYGRLFRSLVG) [compound 17]", "values": [{"measurement": "MTS Assay in MCF-7 Cells, Percent of Control Activity", "setting": "[1]", "value": 40, "unit": "%"}, {"measurement": "Free Fatty Acid Levels in 3T3-L1 Adipocytes Expressed as a Percent Isoproterenol Control, Percent of Control Activity", "setting": "Mouse 3T3-L1 adipocytes", "value": 75, "unit": "%"}, {"measurement": "Caspase 3/7 Activity in MDA-MB-231 Cells, Percent of Control Activity", "setting": "[2]", "value": 43, "unit": "%"}, {"measurement": "MTS Assay in MDA-MB-231 Cells, Percent of Control Activity", "setting": "[3]", "value": 75, "unit": "%"}]}
{"compound": "18 (VLFFRSSKLQYGRLFRSLVG) [compound 18]", "values": [{"measurement": "Free Fatty Acid Levels in 3T3-L1 Adipocytes Expressed as a Percent Isoproterenol Control, Percent of Control Activity", "setting": "Mouse 3T3-L1 adipocytes", "value": 84, "unit": "%"}]}
{"compound": "19 (VLFFRSSKLQYGRLFRSLA) [compound 19]", "values": [{"measurement": "Free Fatty Acid Levels in 3T3-L1 Adipocytes Expressed as a Percent Isoproterenol Control, Percent of Control Activity", "setting": "Mouse 3T3-L1 adipocytes", "value": 95, "unit": "%"}]}
{"compound": "20 (LFFRSSKLQYGRLFRSA) [compound 20]", "values": [{"measurement": "Free Fatty Acid Levels in 3T3-L1 Adipocytes Expressed as a Percent Isoproterenol Control, Percent of Control Activity", "setting": "Mouse 3T3-L1 adipocytes", "value": 73, "unit": "%"}]}
{"compound": "22 (MVWLRLSGSKVEWVWG) [compound 22]", "values": [{"measurement": "MTS Assay in MCF-7 Cells, Percent of Control Activity", "setting": "[1]", "value": 47, "unit": "%"}, {"measurement": "Free Fatty Acid Levels in 3T3-L1 Adipocytes Expressed as a Percent Isoproterenol Control, Percent of Control Activity", "setting": "Mouse 3T3-L1 adipocytes", "value": 93, "unit": "%"}, {"measurement": "Caspase 3/7 Activity in MDA-MB-231 Cells, Percent of Control Activity", "setting": "[2]", "value": 31, "unit": "%"}, {"measurement": "MTS Assay in MDA-MB-231 Cells, Percent of Control Activity", "setting": "[3]", "value": 75, "unit": "%"}]}
{"compound": "23 (VWLRLSGSKVEWVWG) [compound 23]", "values": [{"measurement": "Free Fatty Acid Levels in 3T3-L1 Adipocytes Expressed as a Percent Isoproterenol Control, Percent of Control Activity", "setting": "Mouse 3T3-L1 adipocytes", "value": 71, "unit": "%"}]}
{"compound": "24 (VWLRLSGSKVEWVW; not fully specified) [compound 24]", "values": [{"measurement": "Free Fatty Acid Levels in 3T3-L1 Adipocytes Expressed as a Percent Isoproterenol Control, Percent of Control Activity", "setting": "Mouse 3T3-L1 adipocytes", "value": 81, "unit": "%"}]}
{"compound": "25 ([dA]WLRLSGSKVEWV) [compound 25]", "values": [{"measurement": "Free Fatty Acid Levels in 3T3-L1 Adipocytes Expressed as a Percent Isoproterenol Control, Percent of Control Activity", "setting": "Mouse 3T3-L1 adipocytes", "value": 93, "unit": "%"}]}
{"compound": "CN[C@@H]1C[C@H]2O[C@@](C)([C@@H]1OC)n1c3ccccc3c3c4c(c5c6ccccc6n2c5c31)C(=O)NC4", "note": "[staurosporine, reference compound]", "values": [{"measurement": "viability at 72 h, 10 µM", "setting": "[4]", "value": "< 5", "unit": "%"}, {"measurement": "viability at 72 h, 10 µM", "setting": "[5]", "value": 3, "unit": "%"}]}
{"compound": "insulin [reference compound]", "values": [{"measurement": "Free fatty acid levels, % of the isoproterenol control value", "setting": "Mouse 3T3-L1 adipocytes; insulin 100 nM, positive control", "value": "< 5", "unit": "%"}]}
